The compounds below were run on HSV-2 G strain (assay: HSV-2 Antiviral Assay (Vero cells, cell viability)). Details: Human alphaherpesvirus 2, Vero, 120 h, Vero cells, 160 TCID50 HSV-2 G strain, 5 days, cell viability.
Type: cell-based
Procedure: Vero cells were cultured in Dulbecco's Modified Eagle Medium (DMVEM) supplemented with […] and 100 units/mL penicillin and streptomycin. The cells were passaged 2-3 times per week to maintain sub-confluent densities.
Vero cells were seeded into 96-well plates at a density of 1.0×10^4 cells per well and allowed to attach overnight. Following attachment, the media was replaced with 50 μL of infection medium (DMEM supplemented with 2% fetal bovine serum and 100 units/mL penicillin and streptomycin). A Tecan D300e digital dispenser was then used to add compounds to the culture using an 8-point 3-fold serial dilution format. The DMSO concentration was normalized to 0.5% for all treatments. Following compound addition, 50 μL of infection medium containing 160 TCID50 HSV-2 G strain was added to the cells and incubated at 37° C. for 5 days. After the incubation, 10 μL/well of WST-8 chromogenic reagent was added and the plates incubated at 37° C. for 3 hours. Following the incubation, cell viability was quantified by measuring the absorbance at 460 nm and 620 nm using a Tecan Infinite M1000 Pro plate reader.

SMILES	EC50 [µM]
Cc1nc(N2CCCN(c3ccc(-c4ccccc4F)cc3)C2=O)sc1S(C)(=N)=O (stereo not shown) [Compound 142]	0.1 to 1
Cc1nc(N2CCCN(c3ccc(-c4cc(F)cc5nsnc45)cc3)C2=O)sc1S(=O)(=O)NCCCO [Compound 418]	< 0.1
COc1cc(Cl)c(F)c(-c2ccc(N3CCCN(c4nc(C)c(S(N)(=O)=O)s4)C3=O)cc2)c1 [Compound 218]	< 0.1
Cc1nc(N2CCCN(c3ccc(-c4cccc5sccc45)cc3)C2=O)sc1S(N)(=O)=O [Compound 285]	< 0.1
Cc1nc(N2CC3(COC3)CN(c3ccc(-c4cc(F)cc5nsnc45)cc3)C2=O)sc1S(N)(=O)=O [Compound 340]	< 0.1
Cc1nc(N2CCCN(c3ccc(-c4cc(F)ccc4F)cc3)C2=O)sc1S(=O)(=O)NCCC(C)(C)O [Compound 393]	< 0.1
Cc1nc(N2CCCN(c3ccc(-c4cc(C5CC5)ccc4F)cc3)C2=O)sc1S(N)(=O)=O [Compound 205]	0.1 to 1
Cc1nc(N2C(=O)N(c3ccc(-c4cc(F)ccc4F)cc3)CC[C@@H]2C)sc1S(N)(=O)=O (single isomer, unassigned) [Compound 109]	< 0.1
Cc1nc(N2CCCN(c3ccc(-c4nccc5ccsc45)cc3)C2=O)sc1S(N)(=O)=O [Compound 270]	< 0.1
Cc1nc(N2CCCN(c3ccc(-c4cc(F)ccc4F)cc3)C2=O)sc1S(=O)(=O)NC[C@@H](C)CO [Compound 395]	< 0.1
COc1ccc(F)cc1-c1ccc(N2CC3(COC3)CN(c3nc(C)c(S(N)(=O)=O)s3)C2=O)cc1 [Compound 378]	< 0.1
Cc1nc(N2CCCN(c3ccc(-c4cc(F)ccc4F)cc3)C2=O)sc1S(=O)(=O)Nc1ccccn1 [Compound 406]	< 0.1
Cc1nc(N2CCCN(c3ccc(-c4cc(F)cc5nc(C6CC6)sc45)cc3)C2=O)sc1S(N)(=O)=O [Compound 253]	< 0.1
COc1ccc(F)cc1-c1ccc(N2C[C@@H](C)CN(c3nc(C)c(S(N)(=O)=O)s3)C2=O)cc1 (single isomer, unassigned) [Compound 330]	< 0.1
Cc1nc(N2CCCN(c3ccc(-c4ccccc4/C=C/C#N)cc3)C2=O)sc1S(N)(=O)=O [Compound 20]	0.1 to 1
CSc1ccc(F)cc1-c1ccc(N2CCCN(c3nc(C)c(S(N)(=O)=O)s3)C2=O)cc1 [Compound 223]	< 0.1
Cc1nc(N2CCCN(c3ccc(-c4cc(F)cc5nc(C#N)sc45)cc3)C2=O)sc1S(N)(=O)=O [Compound 279]	0.1 to 1
Cc1nc(N2CCCN(c3ccc(-c4cccn5nncc45)cc3)C2=O)sc1S(N)(=O)=O [Compound 263]	0.1 to 1
Cc1nc(N2CCCN(c3ccc(-c4nccc5ncsc45)cc3)C2=O)sc1S(N)(=O)=O [Compound 260]	< 0.1
Cc1nc2cc(F)cc(-c3ccc(N4CCCN(c5nc(C)c(S(N)(=O)=O)s5)C4=O)cc3)c2s1 [Compound 256]	< 0.1
Cc1nc(N2CCCN(c3ccc(-c4ccccc4C(F)(F)F)cc3)C2=O)sc1S(N)(=O)=O [Compound 196]	< 0.1
Cc1nc(N2CCCN(c3ccc(-c4cc(F)ccc4F)cc3)C2=O)sc1S(=O)(=O)Nc1ccc2cc[nH]c2c1 [Compound 407]	0.1 to 1

More lines, now with the values ahead:

EC50 [µM]	SMILES
< 0.1	Cc1csc(-c2ccc(N3CC4(CC4)CN(c4nc(C)c(S(N)(=O)=O)s4)C3=O)cc2)n1 [Compound 114]
< 0.1	Cc1nc(N2CCCN(c3ccc(-c4cc(F)cc(C(F)F)c4)cc3)C2=O)sc1S(N)(=O)=O [Compound 222]
< 0.1	COc1ncc(F)cc1-c1ccc(N2CCCN(c3nc(C)c(S(N)(=O)=O)s3)C2=O)cc1 [Compound 239]
< 0.1	Cc1nc(N2CCCN(c3ccc(-c4cc(F)ccc4F)cc3)C2=O)sc1S(=O)(=O)NCCCF [Compound 391]
1 to 5	CO[C@@H]1CN(c2ccc(-c3cc(F)ccc3F)cc2)C(=O)N(c2nc(C)c(S(N)(=O)=O)s2)C1 (single isomer, unassigned) [Compound 358]
1 to 5	Cc1nc(N2CCCN(c3ccc(-c4cc(C(F)(F)F)cc5c4c(CO)cn5C)cc3)C2=O)sc1S(N)(=O)=O [Compound 292]
< 0.1	Cc1nc(N2CCCN(c3ccc(-c4cc(F)ccn4)cc3)C2=O)sc1S(=O)(=O)NC1CC1 [Compound 408]
< 0.1	Cc1nc(N2C[C@@H](F)CN(c3ccc(-c4cc(F)ccc4F)cc3)C2=O)sc1S(=O)(=O)NCCO (single isomer, unassigned) [Compound 415]
< 0.1	CONS(=O)(=O)c1sc(N2CCCN(c3ccc(-c4cc(F)ccc4F)cc3)C2=O)nc1C [Compound 386]
< 0.1	Cc1nc(N2CCCN(c3ccc(-c4cc(C#N)ccc4F)cc3)C2=O)sc1S(N)(=O)=O [Compound 202]
1 to 5	Cc1nc(N2CCCN(c3ccc(-c4cccc(S(C)(=O)=O)c4)cc3)C2=O)sc1S(N)(=O)=O [Compound 201]
< 0.1	Cc1nc(N2C[C@H](C)CN(c3ccc(-c4cc(F)ccc4F)cc3)C2=O)sc1S(N)(=O)=O (single isomer, unassigned) [Compound 319]
< 0.1	Cc1nc(N2CCCN(c3ccc(-c4cc(Cl)cc(Cl)c4F)cc3)C2=O)sc1S(N)(=O)=O [Compound 213]
0.1 to 1	Cc1nc(N2C[C@H](C(N)=O)CN(c3ccc(-c4cc(F)ccc4F)cc3)C2=O)sc1S(N)(=O)=O (single isomer, unassigned) [Compound 382]
< 0.1	NS(=O)(=O)c1sc(N2CCCN(c3ccc(-c4cc(F)ccc4F)cc3)C2=O)nc1CO [Compound 440, 2-(3-(2′,5′-difluoro-[1,1′-biphenyl]-4-yl)-2-oxotetrahydropyrimidin-1(2H)-yl)-4-(hydroxymethyl)thiazole-5-sulfonamide]
0.1 to 1	Cc1nc(N2CCCN(c3ccc(-c4cncc5ncsc45)cc3)C2=O)sc1S(N)(=O)=O [Compound 269]
0.1 to 1	Cc1nc(N2CCCN(c3ccc(-c4cc(F)cc5c(C)c(C(C)(C)O)sc45)cc3)C2=O)sc1S(N)(=O)=O [Compound 282]
< 0.1	CCC[S@](=N)(=O)c1sc(N2CCCN(c3ccc(-c4cc(F)cc(F)c4F)cc3)C2=O)nc1C (single isomer, unassigned) [Compound 425]
0.1 to 1	Cc1nc(N2CCCN(c3ccc(-c4cc(F)ccc4F)cc3)C2=O)sc1S(=O)(=O)N1CC[C@H](N)C1 [Compound 398]
< 0.1	Cc1nc(N2C[C@@H](C)CN(c3ccc(-c4cc(F)ccc4F)cc3)C2=O)sc1S(N)(=O)=O (single isomer, unassigned) [Compound 320]
< 0.1	COc1ccc(F)cc1-c1ccc(N2CC(C)CN(c3nc(C)c(S(N)(=O)=O)s3)C2=O)cc1 (stereo not shown) [Compound 329]
< 0.1	Cc1nc2c(-c3ccc(N4CCCN(c5nc(C)c(S(N)(=O)=O)s5)C4=O)cc3)cccc2s1 [Compound 72]
0.1 to 1	Cc1nc(N2CCCN(c3ccc(-c4cc(F)ccc4F)cc3)C2=O)sc1S(=O)(=O)NN [Compound 405]
0.1 to 1	CN=S(C)(=O)c1sc(N2CCCN(c3ccc(-c4cc(F)ccc4F)cc3)C2=O)nc1C (stereo not shown) [Compound 151]
< 0.1	Cc1nc(N2CCCN(c3ccc(-c4cccc5ccnn45)cc3)C2=O)sc1S(N)(=O)=O [Compound 248]

Same assay, conditions: Vero cells, 160 TCID50 HSV-2 G strain, 5 days, cell viability

EC50 [µM]	SMILES
< 0.1	Cc1nc(N2C[C@H](C)CN(c3ccc(-c4ccccc4F)cc3)C2=O)sc1S(N)(=O)=O [Compound 324]
0.1 to 1	Cc1nc(N2CCCN(c3ccc(-c4cccc5ccnn45)cc3)C2=O)sc1S(N)(=O)=O [Compound 64]

— US20260103471A1, “CYCLIC UREA THIAZOLYL COMPOUNDS FOR TREATMENT OF HSV” (Assembly Biosciences, Inc., priority 2022, published 2026)
